Patent US9499550B2 (BRISTOL-MYERS SQUIBB COMPANY, priority 2012, dated 2016)
Like-named read-outs stand apart in the source and are kept apart here.

Key:
[1] = test system: HCV genotype 1b (Con1) replicon in HUH-7 cells; experiment: HCV replicon luciferase reporter assay, genotype 1b; format: cell-based; conditions: Hepatitis C virus, Huh-7, 72 h, 3 days incubation
How it was run: (§1)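 Replicon inhibition for both genotypes was measured as Renilla luciferase signal (EnduRen, 7.5 μM final, 2 h) after 3-day, 37° C exposure of replicon-bearing HUH-7 cells in 4% FCS DMEM, 0.5% DMSO. The 1b construct carries S1179I; the 1a H77 construct carries P1496L and S2204I. Twenty-point, 3-fold dilutions were fitted four-parametrically for EC50, and CC50 was taken from multiplexed Cell Titer-Blue.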

[2] = test system: HCV genotype 1a (H77 strain) replicon in HUH-7 cells; experiment: HCV replicon luciferase reporter assay, genotype 1a; format: cell-based; conditions: Hepatitis C virus, Huh-7, 72 h, 3 days incubation
How it was run: as §1

[3] = HCV genotype 1b replicon luciferase, read-out: LE_1b (EC50, range)
[4] = HCV genotype 1a replicon luciferase, read-out: LE_1a (EC50, range)
[5] = GETYPE1B, HCV genotype 1b replicon luciferase, read-out: LE_1b (EC50, range)
[6] = GETYPE1A, HCV genotype 1a replicon luciferase, read-out: LE_1a (EC50, range)
[7] = HCV genotype 1b replicon luciferase assay, range class, read-out: LE_1b (EC50, range)
[8] = HCV genotype 1a replicon luciferase assay, range class, read-out: LE_1a (EC50, range)

| Compound | EC50 [1, 3] [nM] | EC50 [2, 4] [nM] | further results |
| --- | --- | --- | --- |
| COc1cc2c(OC)cnc(O[C@@H]3C[C@H]4C(=O)N[C@]5(C(=O)NS(=O)(=O)C6(CF)CC6)C[C@H]5/C=C\CC[C@@H](C)C[C@@H](C)[C@H](NC(=O)OC(C)(C)C)C(=O)N4C3)c2cc1F [Compound 4084, tert-butyl (2R,6S,7R,9R,13aS,14aR,16aS,Z)-2-(7-fluoro-4,6-dimethoxyisoquinolin-1-yloxy)-14a-(1-(fluoromethyl)cyclopropylsulfonylcarbamoyl)-7,9-dimethyl-5,16-dioxo-1,2,3,5,6,7,8,9,10,11,13a,14,14a,15,16,16a-hexadecahydrocyclopropa[e]pyrrolo[1,2-a][1,4]diazacyclopentadecin-6-ylcarbamate] | < 5.46 | < 5.46 | – |
| COc1ccc2c(O[C@@H]3C[C@H]4C(=O)N[C@]5(C(=O)NS(=O)(=O)C6(C)CC6)C[C@H]5/C=C\CC[C@H](C)C[C@@H](C)[C@H](NC(=O)OC(C)(C)C(F)(F)F)C(=O)N4C3)nc(-c3ccc(OC(C)C)nc3)cc2c1 [Compound 5224, 1,1,1-trifluoro-2-methylpropan-2-yl((2R,6S,7R,9S,13aS,14aR,16aS,Z)-2-((3-(6-isopropoxypyridin-3-yl)-6-methoxyisoquinolin-1-yl)oxy)-7,9-dimethyl-14a-(((1-methylcyclopropyl)sulfonyl)carbamoyl)-5,16-dioxo-1,2,3,5,6,7,8,9,10,11,13a,14,14a,15,16,16a-hexadecahydrocyclopropa[e]pyrrolo[1,2-a][1,4]diazacyclopentadecin-6-yl)carbamate] | 4.82 to 103 | 4.82 to 103 | – |
| CCOc1ccc2c(O[C@@H]3C[C@H]4C(=O)N[C@]5(C(=O)NS(=O)(=O)C6CC6)C[C@H]5/C=C\CC[C@@H](C)C[C@@H](CC)[C@H](NC(=O)OC(C)(C)C(F)(F)F)C(=O)N4C3)nccc2c1 [Compound 5357, 1,1,1-trifluoro-2-methylpropan-2-yl((2R,6S,7R,9R,13aS,14aR,16aS,Z)-14a-((cyclopropylsulfonyl)carbamoyl)-2-((6-ethoxyisoquinolin-1-yl)oxy)-7-ethyl-9-methyl-5,16-dioxo-1,2,3,5,6,7,8,9,10,11,13a,14,14a,15,16,16a-hexadecahydrocyclopropa[e]pyrrolo[1,2-a][1,4]diazacyclopentadecin-6-yl)carbamate] | 0.51 to 1 | 1.01 to 5 | – |
| COc1nnc(O[C@@H]2C[C@H]3C(=O)N[C@]4(C(=O)NS(=O)(=O)C5CC5)C[C@H]4/C=C\CC[C@H](C)C[C@@H](C)[C@H](NC(=O)OC(C)(C)C)C(=O)N3C2)c2ccccc12 [Compound 5003, tert-butyl ((2R,6S,7R,9S,13aS,14aR,16aS,Z)-14a-((cyclopropylsulfonyl)carbamoyl)-2-((4-methoxyphthalazin-1-yl)oxy)-7,9-dimethyl-5,16-dioxo-1,2,3,5,6,7,8,9,10,11,13a,14,14a,15,16,16a-hexadecahydrocyclopropa[e]pyrrolo[1,2-a][1,4]diazacyclopentadecin-6-yl)carbamate] | < 5.46 | 4.82 to 103 | EC50 ([1]; HCV genotype 1b replicon luciferase, read-out: LE_1b (EC50)): 1.96 nM; EC50 ([2]; HCV genotype 1a replicon luciferase, read-out: LE_1a (EC50)): 5.46 nM |
| COc1ccc2ncc(O[C@@H]3C[C@H]4C(=O)N[C@]5(C(=O)NS(=O)(=O)C6(C)CC6)C[C@H]5/C=C\CC[C@@H](C)C[C@@H](C)[C@H](NC(=O)OC(C)(C)C(F)(F)F)C(=O)N4C3)nc2c1 [Compound 4162] | – | – | EC50 [1, 5]: < 5.46 nM; EC50 [2, 6]: < 5.46 nM |
| CCOc1cnc(O[C@@H]2C[C@H]3C(=O)N[C@]4(C(=O)NS(=O)(=O)C5CC5)C[C@H]4/C=C\CC[C@@H](C)C[C@@H](CC)[C@H](NC(=O)OC(C)(C)C(F)(F)F)C(=O)N3C2)c2ccc(OC)cc12 [Compound 4249] | – | – | EC50 [1, 5]: 0.51 to 1 nM; EC50 [2, 6]: 1.01 to 5 nM |
| CC[C@@H]1C[C@@H](C)CC/C=C\[C@@H]2C[C@@]2(C(=O)NS(=O)(=O)C2CC2)NC(=O)[C@@H]2C[C@@H](Oc3nccc4c(OC)cccc34)CN2C(=O)[C@H]1NC(=O)OC(C)(C)C [Compound 3025, tert-butyl ((2R,6S,7R,9S,13aS,14aR,16aS,Z)-14a-((cyclopropylsulfonyl)carbamoyl)-7-ethyl-2-((5-methoxyisoquinolin-1-yl)oxy)-9-methyl-5,16-dioxo-1,2,3,5,6,7,8,9,10,11,13a,14,14a,15,16,16a-hexadecahydrocyclopropa[e]pyrrolo[1,2-a][1,4]diazacyclopentadecin-6-yl)carbamate] | – | – | EC50 [1, 7]: 4.82 to 103 nM; EC50 [2, 8]: 4.82 to 103 nM |
| COc1cc2cc(-c3ccc(OC(C)C)cc3)nc(O[C@@H]3C[C@H]4C(=O)N[C@]5(C(=O)NS(=O)(=O)C6(C)CC6)C[C@H]5/C=C\CC[C@@H](C)C[C@@H](C)[C@H](NC(=O)O[C@@H]5C[C@@H]6C[C@@H]6C5)C(=O)N4C3)c2cc1F [Compound 3192, (1R,3r,5S)-bicyclo[3.1.0]hexan-3-yl((2R,6S,7R,9R,13aS,14aR,16aS,Z)-2-((7-fluoro-3-(4-isopropoxyphenyl)-6-methoxyisoquinolin-1-yl)oxy)-7,9-dimethyl-14a-(((1-methylcyclopropyl)sulfonyl)carbamoyl)-5,16-dioxo-1,2,3,5,6,7,8,9,10,11,13a,14,14a,15,16,16a-hexadecahydrocyclopropa[e]pyrrolo[1,2-a][1,4]diazacyclopentadecin-6-yl)carbamate] | < 5.46 | < 5.46 | – |
| CC[C@@H]1C[C@H](C)CC/C=C\[C@@H]2C[C@@]2(C(=O)NS(=O)(=O)C2(C)CC2)NC(=O)[C@@H]2C[C@@H](Oc3nccc4cc(OC)c(F)cc34)CN2C(=O)[C@H]1NC(=O)OC(C)(C)C(F)F [Compound 5527, 1,1-difluoro-2-methylpropan-2-yl((2R,6S,7R,9R,13aS,14aR,16aS,Z)-7-ethyl-2-((7-fluoro-6-methoxyisoquinolin-1-yl)oxy)-9-methyl-14a-(((1-methylcyclopropyl)sulfonyl)carbamoyl)-5,16-dioxo-1,2,3,5,6,7,8,9,10,11,13a,14,14a,15,16,16a-hexadecahydrocyclopropa[e]pyrrolo[1,2-a][1,4]diazacyclopentadecin-6-yl)carbamate] | 0.51 to 1 | 1.01 to 5 | – |
| COc1ccc2c(O[C@@H]3C[C@H]4C(=O)N[C@]5(C(=O)NS(=O)(=O)C6(CF)CC6)C[C@H]5/C=C\CC[C@@H](C)C[C@@H](C)[C@H](NC(=O)OC(C)(C)C(F)(F)F)C(=O)N4C3)nc(N(C)C)cc2c1 [Compound 3127, 1,1,1-trifluoro-2-methylpropan-2-yl((2R,6S,7R,9R,13aS,14aR,16aS,Z)-2-((3-(dimethylamino)-6-methoxyisoquinolin-1-yl)oxy)-14a-(((1-(fluoromethyl)cyclopropyl)sulfonyl)carbamoyl)-7,9-dimethyl-5,16-dioxo-1,2,3,5,6,7,8,9,10,11,13a,14,14a,15,16,16a-hexadecahydrocyclopropa[e]pyrrolo[1,2-a][1,4]diazacyclopentadecin-6-yl)carbamate] | – | – | EC50 [1, 7]: < 5.46 nM; EC50 [2, 8]: 4.82 to 103 nM |
| CC[C@@H]1C[C@H](C)CC/C=C\[C@@H]2C[C@@]2(C(=O)NS(=O)(=O)C2(CF)CC2)NC(=O)[C@@H]2C[C@@H](Oc3nccc4c5c(ccc34)OCCO5)CN2C(=O)[C@H]1NC(=O)OC(C)(C)C(F)(F)F [Compound 5427, 1,1,1-trifluoro-2-methylpropan-2-yl((2R,6S,7R,9R,13aS,14aR,16aS,Z)-2-((2,3-dihydro-[1,4]dioxino[2,3-f]isoquinolin-7-yl)oxy)-7-ethyl-14a-(((1-(fluoromethyl)cyclopropyl)sulfonyl)carbamoyl)-9-methyl-5,16-dioxo-1,2,3,5,6,7,8,9,10,11,13a,14,14a,15,16,16a-hexadecahydrocyclopropa[e]pyrrolo[1,2-a][1,4]diazacyclopentadecin-6-yl)carbamate] | 5.01 to 35 | 5.01 to 35 | – |
| COc1ccc2c(O[C@@H]3C[C@H]4C(=O)N[C@]5(C(=O)NS(=O)(=O)C6(CF)CC6)C[C@H]5/C=C\CC[C@@H](C)C[C@@H](C)[C@H](NC(=O)OC(C)(C)C(C)(F)F)C(=O)N4C3)ncc(C(F)(F)F)c2c1 [Compound 1167, 3,3-difluoro-2-methylbutan-2-yl((2R,6S,7R,9R,13aS,14aR,16aS,Z)-14a-(((1-(fluoromethyl)cyclopropyl)sulfonyl)carbamoyl)-2-((6-methoxy-4-(trifluoromethyl)isoquinolin-1-yl)oxy)-7,9-dimethyl-5,16-dioxo-1,2,3,5,6,7,8,9,10,11,13a,14,14a,15,16,16a-hexadecahydrocyclopropa[e]pyrrolo[1,2-a][1,4]diazacyclopentadecin-6-yl)carbamate] | – | – | EC50 [1, 7]: < 5.46 nM; EC50 [2, 8]: < 5.46 nM |
| CCn1nc(O[C@@H]2C[C@H]3C(=O)N[C@]4(C(=O)NS(=O)(=O)C5CC5)C[C@H]4/C=C\CC[C@@H](C)C[C@@H](C)[C@H](NC(=O)NC(C)(C)C)C(=O)N3C2)c2ccccc2c1=O [Compound 5072, (2R,6S,7R,9R,13aS,14aR,16aS,Z)-6-(3-(tert-butyl)ureido)-N-(cyclopropylsulfonyl)-2-((3-ethyl-4-oxo-3,4-dihydrophthalazin-1-yl)oxy)-7,9-dimethyl-5,16-dioxo-1,2,3,5,6,7,8,9,10,11,13a,14,14a,15,16,16a-hexadecahydrocyclopropa[e]pyrrolo[1,2-a][1,4]diazacyclopentadecine-14a-carboxamide] | 4.82 to 103 | > 87.4 | – |
